According to US8802597B2, “Herbicidal pyrimidines” (E I du Pont de Nemours and Company, priority 2003, dated 2014):

Columns and labels:
[1] = tested on: catchweed bedstraw (galium; Galium aparine); test: Test D pre/postemergence; assay type: in vivo; conditions: scale 0 to 100 (100 = complete control)
Source text: (§1) Seeds of plant species selected from catchweed bedstraw (galium; Galium aparine), common chickweed (Stellaria media), kochia (Kochia scoparia), lambsquarters (Chenopodium album), pigweed (Amaranthus retroflexus), Russian thistle (Salsola kali), wild buckwheat (Polygonum convolvulus), wild mustard (Sinapis arvensis), winter barley (Hordeum vulgare), and wheat (Triticum aestivum) were planted and treated preemergence with test chemicals formulated in a non-phytotoxic solvent mixture which included a surfactant.
(§2) At the same time, plants selected from these crop and weed species were treated with postemergence applications of some of the test chemicals formulated in the same manner. Plants ranged in height from 2 to 18 cm (1- to 4-leaf stage) for postemergence treatments. Treated plants and controls were maintained in a controlled growth environment for 15 to 25 days after which time all species were compared to controls and visually evaluated. Plant response ratings, summarized in Table D, are based on a scale of 0 to 100 where 0 is no effect and 100 is complete control. A dash (-) response means no test result.

[2] = tested on: pigweed (Amaranthus retroflexus); test: Test D pre/postemergence; assay type: in vivo; conditions: scale 0 to 100 (100 = complete control)
Source text: as §1, §2

Compound | Plant response rating, Galium ([1]; Postemergence, 62 g ai/ha) | Plant response rating, Galium ([1]; Postemergence, 125 g ai/ha) | Plant response rating, Galium ([1]; Preemergence, 62 g ai/ha) | Plant response rating, Galium ([1]; Preemergence, 125 g ai/ha) | Plant response rating, Pigweed ([2]; Postemergence, 62 g ai/ha) | Plant response rating, Pigweed ([2]; Postemergence, 125 g ai/ha) | Plant response rating, Pigweed ([2]; Preemergence, 62 g ai/ha) | Plant response rating, Pigweed ([2]; Preemergence, 125 g ai/ha) | Plant response rating, Galium ([1]; Postemergence, 250 g ai/ha) | Plant response rating, Galium ([1]; Preemergence, 250 g ai/ha) | Plant response rating, Pigweed ([2]; Postemergence, 250 g ai/ha) | Plant response rating, Pigweed ([2]; Preemergence, 250 g ai/ha) | also measured
COC(=O)c1nc(C2CC2)nc(N)c1Br [Compound 2, methyl 6-amino-5-bromo-2-cyclopropyl-4-pyrimidinecarboxylate] | 100 | 100 | 98 | 100 | 100 | 100 | 85 | 100 |  |  |  |  | Plant response rating, Galium ([1]; Postemergence, 16 g ai/ha): 75; Plant response rating, Galium ([1]; Postemergence, 31 g ai/ha): 100; Plant response rating, Galium ([1]; Preemergence, 16 g ai/ha): 80; Plant response rating, Galium ([1]; Preemergence, 31 g ai/ha): 90; Plant response rating, Pigweed ([2]; Postemergence, 16 g ai/ha): 65; Plant response rating, Pigweed ([2]; Postemergence, 31 g ai/ha): 85; Plant response rating, Pigweed ([2]; Preemergence, 16 g ai/ha): 65; Plant response rating, Pigweed ([2]; Preemergence, 31 g ai/ha): 70
Nc1nc(C2CC2)nc(C=O)c1Br [Compound 26] |  | 70 |  | 85 |  | 60 |  | 65 | 85 | 100 | 70 | 100 | 
COC(=O)c1nc(C2CC2C)nc(N)c1Br (stereo not shown) [Compound 28] | 100 |  | 100 | 100 | 60 | 60 | 45 |  | 100 | 100 | 70 | 80 | 
CCOC(=O)Cc1nc(C2CC2)nc(N=CN(C)C)c1Br [Compound 33] | 55 | 60 | 70 | 80 | 45 | 55 | 60 | 70 | 65 | 100 | 55 | 90 | 
COC(=O)c1nc(C2CC2)nc(NO)c1Br [Compound 35] | 100 | 100 | 85 | 100 | 100 | 100 | 65 | 80 | 100 | 100 | 100 | 85 | 
CCOC(=O)C(OC(C)=O)c1nc(C2CC2)nc(N)c1Br (stereo not shown) [Compound 47] | 75 | 80 |  |  | 50 | 55 |  |  | 98 |  | 65 |  | Plant response rating, Galium ([1]; Postemergence, 31 g ai/ha): 65; Plant response rating, Pigweed ([2]; Postemergence, 31 g ai/ha): 35
COC(=O)c1nc(-c2ccc(Cl)cc2)nc(N)c1Cl [Compound 58, methyl 6-amino-5-chloro-2-(4-chlorophenyl)-4-pyrimidinecarboxylate] | 100 | 100 | 100 | 100 | 80 | 100 | 70 | 100 | 100 | 100 | 100 | 100 | Plant response rating, Galium ([1]; Postemergence, 500 g ai/ha): 100; Plant response rating, Galium ([1]; Preemergence, 500 g ai/ha): 100; Plant response rating, Pigweed ([2]; Postemergence, 500 g ai/ha): 100; Plant response rating, Pigweed ([2]; Preemergence, 500 g ai/ha): 100
